# In patent publication US20230210096A1, “NON-HUMAN ANIMAL MODELS FOR AGING AND/OR NEURODEGENERATION” (University of Pittsburgh - Of the Commonwealth System of …, priority 2020, published 2023):
# Assays:
# [1] = test system: AANAT-KO differentiated N2a cells; experiment: qPCR of cytosolic mtDNA in differentiated N2a cells; type: cell-based, mouse; details: melatonin 5 µM
# Experimental: (§1) N2a cells were obtained from ATCC and grown in DMEM/F12 medium with 10% FBS. AANAT-KO N2a cells were generated as described elsewhere (see, e.g., Suofu et al., PNAS 114:E7997-E8006 (2017)). N2a cells were differentiated by exposing them to 10 µM retinoic acid (RA) with 2% fetal bovine serum (FBS) for 8 days. Every alternate day, the culture medium of differentiating N2a cells was replaced with fresh medium containing 10 µM of RA. N2a cells were treated with 5 µM melatonin during differentiation to evaluate the effect of melatonin in WT and AANAT-KO N2a differentiated neurons. Fresh melatonin was added with RA every alternate day for 8 days. All experiments were performed in 8-day-differentiated neurons with or without melatonin. STHdh^Q7/Q7 (Q7) STHdh^Q111/Q111 (Q111) cells were grown in MEM culture medium with 10% FBS. Differentiation of Q7 and Q111 cells was induced by exposing cells to 10 ng/mL α-FGF, 250 µM 3-isobutyl-1-methylxanthine (IBMX), 200 nM phorbol 12-myristate 13-acetate (TPA), 50 µM forskolin and 10 µM dopamine for 2 days. […]
# (§2) For measurement of mtDNA in cytosol in cells, cell fractions were prepared using Cell Fractionation Kit (Abeam). […] The copy number of mtDNA encoding cytochrome c oxidase 1 (mt-CO1), mt-Dloop1 and mt-Dloop3 was measured by quantitative real-time PCR with same volume of DNA solution. […]
# [2] = test system: AANAT-KO differentiated N2a cells; experiment: 8-OHDG immunofluorescence (mtDNA oxidative damage) in differentiated N2a cells; type: cell-based, mouse; details: melatonin 5 µM
# Experimental: (§3) N2a cells were obtained from ATCC and grown in DMEM/F12 medium with 10% FBS. AANAT-KO N2a cells were generated as described elsewhere (see, e.g., Suofu et al., PNAS 114:E7997-E8006 (2017)). N2a cells were differentiated by exposing them to 10 µM retinoic acid (RA) with 2% fetal bovine serum (FBS) for 8 days. Every alternate day, the culture medium of differentiating N2a cells was replaced with fresh medium containing 10 µM of RA. N2a cells were treated with 5 µM melatonin during differentiation to evaluate the effect of melatonin in WT and AANAT-KO N2a differentiated neurons. Fresh melatonin was added with RA every alternate day for 8 days. All experiments were performed in 8-day-differentiated neurons with or without melatonin. STHdh^Q7/Q7 (Q7) STHdh^Q111/Q111 (Q111) cells were grown in MEM culture medium with 10% FBS. Differentiation of Q7 and Q111 cells was induced by exposing cells to 10 ng/mL α-FGF, 250 µM 3-isobutyl-1-methylxanthine (IBMX), 200 nM phorbol 12-myristate 13-acetate (TPA), 50 µM forskolin and 10 µM dopamine for 2 days. AANAT-KO and littermate WT primary cerebro-cortical neuron (PCN) cultures were prepared from embryonic day (E) 15.5 embryos, as described elsewhere (see, e.g., Yano et al., Nature neuroscience 17:822 (2014)). […]
# [3] = test system: AANAT-KO primary cerebrocortical neurons (PCNs); experiment: MMP (TMRM) and mitochondrial ROS (Mitosox) in PCNs; type: cell-based, mouse; details: AANAT-KO PCN, DIV21, melatonin 5 µM in culture medium
# Experimental: as §1, with “FBS.” for “FBS. Differentiation of Q7 and Q111 cells was induced by exposing cells to 10 ng/mL α-FGF, 250 µM 3-isobutyl-1-methylxanthine (IBMX), 200 nM phorbol 12-myristate 13-acetate (TPA), 50 µM forskolin and 10 µM dopamine for 2 days.”
# (§4) ROS accumulation in cells was estimated by either DCFDA for total ROS or Mitosox for mitochondrial ROS. Cells were incubated in 20 µM DCFDA for 45 minutes or 5 µM Mitosox for 15 minutes at 37° C. and fluorescence was measured using plate reader or flowcytometry. […] Cells were incubated in 2 µg/mL JC-1 or 25 nM TMRM for 30 minutes at 37° C. and fluorescence were measured using plate reader or flowcytrometry. […]
# [4] = test system: AANAT-KO differentiated N2a cells; experiment: ROS (Mitosox) and MMP (JC-1/TMRM) in differentiated N2a cells; type: cell-based, mouse; details: melatonin 5 µM
# Experimental: as §1, with “FBS.” for “FBS. Differentiation of Q7 and Q111 cells was induced by exposing cells to 10 ng/mL α-FGF, 250 µM 3-isobutyl-1-methylxanthine (IBMX), 200 nM phorbol 12-myristate 13-acetate (TPA), 50 µM forskolin and 10 µM dopamine for 2 days.”
# as §4
# [5] = test system: AANAT-KO primary cerebrocortical neurons (PCNs); experiment: qPCR of cytosolic mtDNA in PCNs; type: cell-based, mouse; details: AANAT-KO PCN, DIV21, melatonin 5 µM
# Experimental: as §1, §2
# [6] = test system: AANAT-KO differentiated N2a cells; experiment: Neurite length and number by βIII-tubulin staining; type: cell-based, mouse; details: melatonin 5 µM
# Experimental: as §3
# [7] = test system: AANAT-KO differentiated N2a cells; experiment: Cytokine ELISA in culture medium of differentiated N2a cells; type: cell-based, mouse; details: melatonin 5 µM
# Experimental: (§5) N2a cells were obtained from ATCC and grown in DMEM/F12 medium with 10% FBS. AANAT-KO N2a cells were generated as described elsewhere (see, e.g., Suofu et al., PNAS 114:E7997-E8006 (2017)). N2a cells were differentiated by exposing them to 10 µM retinoic acid (RA) with 2% fetal bovine serum (FBS) for 8 days. Every alternate day, the culture medium of differentiating N2a cells was replaced with fresh medium containing 10 µM of RA. N2a cells were treated with 5 µM melatonin during differentiation to evaluate the effect of melatonin in WT and AANAT-KO N2a differentiated neurons. Fresh melatonin was added with RA every alternate day for 8 days. All experiments were performed in 8-day-differentiated neurons with or without melatonin. STHdh^Q7/Q7 (Q7) STHdh^Q111/Q111 (Q111) cells were grown in MEM culture medium with 10% FBS. Differentiation of Q7 and Q111 cells was induced by exposing cells to 10 ng/mL α-FGF, 250 µM 3-isobutyl-1-methylxanthine (IBMX), 200 nM phorbol 12-myristate 13-acetate (TPA), 50 µM forskolin and 10 µM dopamine for 2 days. AANAT-KO and littermate WT primary cerebro-cortical neuron (PCN) cultures were prepared from embryonic day (E) 15.5 embryos, as described elsewhere (see, e.g., Yano et al., Nature neuroscience 17:822 (2014)).
# R6/2 mice = experiment: Melatonin injection in R6/2 mouse model of HD: cytosolic mtDNA, cGAS/STING/IRF3, cytokines; type: in vivo; details: melatonin 30 mg/kg injected daily from 6 to 9 weeks of age
# Experimental: Since melatonin is protective in R6/2 mice and melatonin is deficient in humans with HD, it was evaluated whether exogenous melatonin reduces mtDNA release and consequent inflammation. Six-week old R6/2 mice were injected with melatonin daily for 3 weeks. Melatonin inhibited mtDNA release and ameliorated cGAS/STING/IRF3 upregulation in cortex and striatum in 9-week R6/2 mice (FIGS. 12D and E, and FIG. 13A).
# R6/2 mice, which carry the promoter sequence and exon 1 of a mutant human HTT gene with approximately 150 CAG repeats, were obtained from JAX (Bar Harbor, ME). A colony was maintained by breeding R6/2 males with B6CBAF1 females (JAX). CAG repeat length was determined for every mouse in the colony and mice with 150 +/-10 CAG repeats were used. PCR genotyping was performed. Three, six and Nine week-old R6/2 mice were used in the experiments.
# (§6) Samples (isolated mitochondria or whole-cell lysates) were cleared by centrifugation at 20,000 x g, equal amounts of protein were separated on Novex 4-12% gradient polyacrylamide gels (Invitrogen), and proteins transferred overnight onto 0.45 µm polyvinylidene difluoride (PVDF) membranes. The membranes were then incubated with the indicated primary antibodies overnight at 4° C. followed by incubation with secondary antibodies (Li-Cor) for 1 hour at room temperature, which were detected using the Odyssey CLx Infrared Imaging System (Li-Cor). Band intensities were quantified using Image Studio (Li-Cor).
# (§7) Total RNA was isolated using the RNeasy Plus kit (Qiagen) and quantified using a ND-1000 spectrophotometer. cDNA was prepared using 1000 ng total RNA by a reverse transcription PCR (RT-PCR) using a high capacity cDNA reverse transcription kit (Applied Biosystems). qPCR was performed on cDNA using SYBR Green chemistry. qPCR was performed on a Biorad CFX touch PCR using Applied Biosystems PowerUp SYBR green master mix. Fold changes in expression were calculated by the ΔΔCt method using mouse β-Actin as an endogenous control for mRNA expression. All fold changes were expressed normalized to the untreated control. […]
# [8] = test system: AANAT-KO primary cerebrocortical neurons (PCNs); experiment: Cytokine ELISA in culture medium of PCNs; type: cell-based, mouse; details: AANAT-KO PCN, DIV21, melatonin 5 µM
# Experimental: as §5
# [9] = test system: AANAT-KO differentiated N2a cells; experiment: Immunoblot of inflammatory, caspase and synaptic markers in differentiated N2a cells; type: cell-based, mouse; details: melatonin 5 µM
# Experimental: as §5, §6
# [10] = test system: mitochondria of AANAT-KO differentiated N2a cells; experiment: Mitochondrial in vitro protein import assay (pOTC/mOTC); type: cell-based, mouse; details: melatonin
# Experimental: as §1, with “FBS.” for “FBS. Differentiation of Q7 and Q111 cells was induced by exposing cells to 10 ng/mL α-FGF, 250 µM 3-isobutyl-1-methylxanthine (IBMX), 200 nM phorbol 12-myristate 13-acetate (TPA), 50 µM forskolin and 10 µM dopamine for 2 days.”
# Ornithine transcarbamylase (OTC) precursor cDNA in pGEM-3Zf(+)-pOTC plasmid was transcribed and translated in vitro using the TNT Coupled Reticulocyte Lysate System (Promega) in the presence of [^35S] methionine (PerkinElmer). […] Mature OTC, which represents the cleaved protein after translocation into the mitochondrial matrix, was quantified by ImageJ (NIH). […]
# [11] = test system: AANAT-KO primary cerebrocortical neurons (PCNs); experiment: Immunoblot of cGAS, STING, IRF3, caspase-1 in PCNs; type: cell-based, mouse; details: AANAT-KO PCN, DIV21, melatonin 5 µM
# Experimental: as §1, with “melatonin.” for “melatonin. STHdh^Q7/Q7 (Q7) STHdh^Q111/Q111 (Q111) cells were grown in MEM culture medium with 10% FBS. Differentiation of Q7 and Q111 cells was induced by exposing cells to 10 ng/mL α-FGF, 250 µM 3-isobutyl-1-methylxanthine (IBMX), 200 nM phorbol 12-myristate 13-acetate (TPA), 50 µM forskolin and 10 µM dopamine for 2 days.”
# as §6
# Q111 cells = experiment: ROS (Mitosox) and MMP (TMRM) in differentiated Q7 and Q111 neurons; type: cell-based, mice; details: Q111 cells transfected with DNase 1, 2 µg/mL, LDH control
# Experimental: as §1, with “FBS.” for “FBS. Differentiation of Q7 and Q111 cells was induced by exposing cells to 10 ng/mL α-FGF, 250 µM 3-isobutyl-1-methylxanthine (IBMX), 200 nM phorbol 12-myristate 13-acetate (TPA), 50 µM forskolin and 10 µM dopamine for 2 days.”
# as §4
# [12] = test system: Q7 and Q111 differentiated neurons; experiment: Immunoblot of cGAS, IRF3, STING in differentiated Q7 and Q111 neurons; type: cell-based, mice; details: differentiated Q111 neurons transfected with DNase 1, LDH control
# Experimental: as §1, with “melatonin.” for “melatonin. STHdh^Q7/Q7 (Q7) STHdh^Q111/Q111 (Q111) cells were grown in MEM culture medium with 10% FBS. Differentiation of Q7 and Q111 cells was induced by exposing cells to 10 ng/mL α-FGF, 250 µM 3-isobutyl-1-methylxanthine (IBMX), 200 nM phorbol 12-myristate 13-acetate (TPA), 50 µM forskolin and 10 µM dopamine for 2 days.”
# as §6, with “Studio (Li-Cor). […]” for “Studio (Li-Cor).”
# [13] = test system: Q7 and Q111 differentiated neurons; experiment: Cytokine ELISA and mRNA qPCR in differentiated Q7 and Q111 neurons; type: cell-based, mice; details: Q111 differentiated neurons transfected with DNase 1, LDH control
# Experimental: as §1, with “FBS.” for “FBS. Differentiation of Q7 and Q111 cells was induced by exposing cells to 10 ng/mL α-FGF, 250 µM 3-isobutyl-1-methylxanthine (IBMX), 200 nM phorbol 12-myristate 13-acetate (TPA), 50 µM forskolin and 10 µM dopamine for 2 days.”
# as §7, with “expression.” for “expression. All fold changes were expressed normalized to the untreated control.”
molecule,measurement,setting,value
"COc1ccc2[nH]cc(CCNC(C)=O)c2c1 [melatonin, Melatonin]",mtDNA release (cytosolic mtDNA),[1],prevented
same,mtDNA damage (8-OHDG),[2],mitigated
same,MMP (TMRM fluorescence),[3],restored
same,mitochondrial ROS (Mitosox),[3],restored
same,MMP (JC-1 fluorescence),[4],mitigated
same,ROS (Mitosox fluorescence),[4],mitigated
same,"cytosolic mtDNA (mt-CO1, mt-Dloop1, mt-Dloop3)",[5],inhibited
same,average neurite length,[6],rescued
same,average neurite number,[6],rescued
same,pro-inflammatory cytokines secretion,[7],inhibited
same,expression of pro-inflammatory cytokines in brain,R6/2 mice,reduced
same,cGAS/STING/IRF3 upregulation,R6/2 mice; cortex and striatum,ameliorated
same,mtDNA release (cytosolic mtDNA),R6/2 mice; cortex and striatum,inhibited
same,proinflammatory cytokines secretion,[8],inhibited
same,caspase-3 activation,[9],inhibited
same,expression of PSD95 (post-synaptic marker),[9],increased
same,expression of synaptophysin (pre-synaptic marker),[9],increased
same,"inflammatory signaling pathways (Nf-kβ phosphorylation, caspase-1 cleavage, cGAS/STING/IRF3 levels)",[9],inhibited
same,mitochondrial protein import,[10],mitigated
same,cGAS/STING/IRF3 protein levels,[11],inhibited
same,caspase-1,[11],inhibited
"DNAse1: DNAse1 protein transfected to degrade cytosolic DNA (protein, UniProt P24855 23-282, looked up) Deoxyribonuclease-1: LKIAAFNIQTFGETKMSNATLVSYIVQILSRYDIALVQEVRDSHLTAVGKLLDNLNQDAPDTYHYVVSEPLGRNSYKERYLFVYRPDQVSAVDSYYYDDGCEPCGNDTFNREPAIVRFFSRFTEVREFAIVPLHAAPGDAVAEIDALYDVYLDVQEKWGLEDVMLMGDFNAGCSYVRPSQWSSIRLWTSPTFQWLIPDSADTTATPTHCAYDRIVVAGMLLRGAVVPDSALPFNFQAAYGLSDQLAQAISDHYPVEVMLK",elevated ROS (Mitosox),Q111 cells,did not alter
same,reduced MMP (TMRM),Q111 cells,did not alter
same,cGAS/STING/IRF3 levels,[12],inhibited
same,proinflammatory cytokine secretion,[13],inhibited
